Data on two molecules can be found in the NIST ThermoML archive (doi:10.1016/j.tca.2018.06.008).

For the data set the following is noted: 101.33 kPa, Liquid, Hot disk method.

Each structure is given as a SMILES string. ± gives the expanded uncertainty stated by the source.

`OCCO` [1,2-ethanediol]: the thermal conductivity (298.15 K) turned out to be 0.2514 ± 0.0074 W/m/K; the thermal conductivity (303.15 K) is 0.2535 ± 0.0061 W/m/K; the thermal conductivity (308.15 K) stood at 0.2551 ± 0.012 W/m/K; the thermal conductivity (313.15 K) amounted to 0.2559 ± 0.0076 W/m/K; the thermal conductivity (318.15 K) is recorded as 0.2568 ± 0.011 W/m/K; the thermal conductivity (323.15 K) is 0.2579 ± 0.011 W/m/K.
Take `O` [water]: the thermal conductivity runs as follows: (298.15 K) 0.6132 ± 0.011 W/m/K; (303.15 K) 0.6201 ± 0.012 W/m/K; (308.15 K) 0.6249 ± 0.012 W/m/K; (313.15 K) 0.6302 ± 0.013 W/m/K; (318.15 K) 0.6368 ± 0.011 W/m/K; (323.15 K) 0.6427 ± 0.014 W/m/K.
